Test results from patent US6358736B1, “Method for increasing the antigen presenting ability of leukemia cells” (The United States of America as represented by the …, priority 1995, dated 2002).

What was measured:
[1] = system: monocytes cocultured with autologous CD8+ T cells; experiment: Autologous CD8+ T cell sensitization to peptide-pulsed monocytes (interferon gamma secretion); type: cell-based, human
Experimental: Monocyte-rich elutriation fractions from healthy HLA-A2.1 donors were either untreated or treated with ionophore A23187 750 ng/ml for 40 hours, then pulsed with either the M1 influenza-derived peptide or the MART1 melanoma-derived peptide (the M1 peptide is a “recall antigen” for all HLA-A2.1^pos individuals, whereas the MART1 peptide is usually a “recall antigen” only for HLA-A2.^pos patients with melanoma). Antigen-pulsed monocytes were cocultured with freshly prepared autologous CD8^+ T cells for 8-10 days; the T cells were then harvested and cocultured with peptide-pulsed HLA-A2.1 positive T2 stimulator cells which had been pulsed 2 hours with 1 μg/ml of either the MART1 peptide, the influenza M1 derived peptide, or an irrelevant HIV peptide to assess whether specific sensitization to FLU or MART1 peptides was attained.
After 40 hours, the cells were pulsed with a tumor derived HER2neu (369-377) peptide for two hours, harvested, then FACS analyzed or cocultured for 8-10 days with naive autologous CD8^+ T cells to determine whether rapid sensitization to the HER2neu peptide could be achieved.

HL-60 cells = experiment: FACS analysis of cell surface markers on HL-60 cells; type: cell-based, human
Experimental: Calcium was removed from cultured cells by two methods.
The second method involved washing the cells extensively in calcium-free RPMI medium, and culturing them in the same calcium-free medium supplemented with serum that had been dialyzed against calcium-free phosphate-buffered saline.
The calmodulin kinase inhibitors KN-62 (20 uM) or KT-5926 (1 uM) was added to HL-60 cells in the presence of 188 ng/ml A23187. Twenty four hours later the level of CD80 was analyzed.
Thapsigargin was added to cultured human peripheral blood monocytes and HL-60 cells in concentrations ranging from 0 to 1000 nM. Cells were harvested 24 hours later and evaluated for the acquisition of ADC immunophenotypic characteristics by FACS analysis.
Cells were harvested after three days, irradiated (3000R), then FACS analyzed or cocultured in graded numbers with freshly prepared naive (CD45RO negative) T lymphocytes. Allosensitization was assessed by pulsing at day 4 with ^3H-TdR and harvesting 18 hours later.

[2] = system: HL-60 cells cocultured with allogeneic naive T cells; experiment: T cell allosensitization by irradiated treated HL-60 cells (3H-TdR); type: cell-based, human; details: A23187 180 ng/ml with or without rhGM-CSF 20 ng/ml and IFN-gamma 1000 u/ml, three days
Experimental: Fresh allogeneic naive (CD45R0 negative) T cells were prepared and cocultured with graded numbers of irradiated (3000R) HL-60 cells treated under the above-described conditions. Four days later the cultures were pulsed with ^3H-TdR (tritiated thymidine) and harvested 18 hours later.

[3] = system: monocyte subpopulation within PBMC; experiment: FACS analysis of monocyte subpopulation in unfractionated PBMC; type: cell-based, human; details: A23187 750 ng/ml, 40 hours
Experimental: (§1) PBMC were prepared by leukapheresis and Ficoll-Hypaque and placed in culture. Since the cells were never elutriated and no adherence step was performed, these cultures deliberately included large numbers of T, B, and NK lymphocytes as well as monocytes. The medium was our standard RPMI 10% human AB serum with antibiotics including amphotericin B. Cells were either untreated or treated for 40 hours with calcium ionophore A23187 750 ng/ml. Cells were then harvested and analyzed by FACS. Cells were stained with FITC conjugated anti-CD3, anti-CD40, anti-CD57, anti-CD 14, or the combination; in addition cells were stained with PE conjugated control antibodies, anti-B7.1, anti-B7.2, etc. In this way the effect of calcium ionophore treatment on each parameter could be clearly delineated.

[4] = system: NK subpopulation within the PBMC; experiment: FACS analysis of NK subpopulation in unfractionated PBMC; type: cell-based, human; details: A23187 750 mg/ml, 40 hours
Experimental: as §1, with “cultures” for “cultures deliberately”, “[…].” for “ng/ml.”, “anti-CD14,” for “anti-CD 14,”

HUVEC = experiment: FACS analysis of umbilical vein endothelial cells; type: cell-based, human
Experimental: Endothelial cells were previously isolated from human umbilical vein (HUVEC), then cultured in IMEM with 20% fetal calf serum and rhEGF ([…]). The cells in this experiment had undergone four previous passages to confluence and were trypsinized and reseeded in T25 flasks. After four days culture to reachieve confluence individual flasks were treated with several concentrations of calcium ionophore (180, 375 and 750 ng/ml). Two days later, cells were harvested by trypsinization and analyzed.

[5] = system: monocytes / dendritic cells cocultured with allogeneic T cells; experiment: Allogeneic T cell sensitization (3H-thymidine) by treated monocytes/dendritic cells; details: A23187 750 ng/ml, 40 hours
Experimental: Uncultured monocytes and DC were each purified from elutriation fractions using Miltenyi microsuperparamagnetic beads; monocytes were positively selected based on CD14 expression, while dendritic cells were negatively selected based on low CD14 expression, then positively selected based on CD33 (myeloid marker) expression. Each isolated fraction was cultured for 40 hours either in medium alone or in ionophore A23187 750 ng/ml, then harvested and either FACS analyzed or microcultured with freshly prepared allogeneic T lymphocytes. Graded numbers of the cultured monocytes or dendritic cells were added to fixed numbers of T cells to compare their antigen-presenting ability. Four days later the microcultures were pulsed with ^3H-dTr and harvested 18 hours later.
Monocyte rich elutriation fractions were cultured for 40 hours with either no additives, ionophore A23187 750 ng/ml, or rhIlL-4 (1000 u/ml) and rhGM-CSF (20 ng/ml), a cytokine combination which leads monocytes to differentiate completely to dendritic cells during seven days of culture (Pickl et al, J. Immunol. 157:3850, 1996). MOMC were then harvested, irradiated (1000 rads) and cocultured in triplicate at various MOMC: T cell ratios with 10^5 allogeneic freshly prepared CD4^+ T cells in 0.2 ml RPMI with 5% AB plasma in 96 well tissue flat bottom culture plates. No cytokines were added during coculture. After 4 days [^3H]thymidine (1 μCi/well) was added and 18 hours later the wells were harvested and counted.
Monocytes in monocyte rich elutriation fractions (90-93% monocytes) were further purified using Miltenyi microsuperparagnetic beads coupled to anti-CD14. After incubation with these beads cells were applied to a magnetized column to positively select the strongly CD14^pos cells, and were enriched to >98% purity. Unpurified or purified monocytes were cultured for 40 hours in our standard culture medium with 750 ng/ml ionophore A23187, then harvested. The recovered cells were either immediately FACS analyzed or added in graded numbers to freshly prepared allogeneic T cells to assay their antigen presenting function. Four days later, the T cell cultures were pulsed with ^3H-TdR (tritiated thymidine) and harvested 18 hours later.

## CNc1ccc2oc(C[C@H]3O[C@@]4(CC[C@H]3C)O[C@H]([C@H](C)C(=O)c3ccc[nH]3)[C@H](C)C[C@H]4C)nc2c1C(=O)O [A23187]
[1]; A23187 750 ng/ml, 40 hours, HLA-A2.1 donors
  stimulation of autologous T cell response to recall antigen M1 influenza peptide, vs untreated monocytes: equally able
[1]; A23187 750 ng/ml, 40 hours, eight normal donors
  sensitization of autologous T cells to MART1 peptide: in every instance
[1]; monocytes treated 40 hours, majority of patients
  T cell sensitization to HER2neu (369-377) peptide: could not be achieved
HL-60 cells; A23187 180 ng/ml, three days
  costimulatory molecule expression: marked upregulation of costimulatory molecules B7.1, B7.2, and ICAM-1
HL-60 cells; agent alone
  HLA-DR expression: not induced
HL-60 cells; calcium-free RPMI and dialyzed serum
  ablation of ionophore-induced upregulation of CD80 and CD86: ~100%
[2]
  allostimulation of naive T cells: significantly allostimulatory
[3]
  CD14 expression: downregulation of CD14 to a background level
  increase of B7.1 expression: seven
  increase of B7.2 expression: 10 fold
  increase of CD40 expression: 7 fold
  increase of CD83 expression: 11 fold
  increase of HLA-DR expression: 9 fold
  increase of ICAM-1 expression: 4.5 fold
[4]
  upregulation of surface markers: negligible upregulation of surface markers
HUVEC; 375 and 750 ng/ml, two days
  ICAM-1 and CD40 expression: upregulated ICAM-1 and CD40 expression
HUVEC; two days
  HLA-ABC expression: unchanged
HUVEC; with or without ionophore treatment
  B7.1, B7.2, HLA-DR and CD83 expression: failed to express detectable B7.1, B7.2, HLA-DR or CD83
[5]
  T cell sensitizing capacity of purified monocytes vs prepurified fraction cells: enhanced T cell sensitizing capacity identical on a cell numbers basis
[5]; graded numbers
  T cell sensitizing capacity of treated monocytes (allogeneic CD4+ T cells): much greater T cell sensitizing capacity
[5]; vs untreated
  T cell sensitizing efficiency of purified DC: only a modest increase
  T cell sensitizing efficiency of purified monocytes: a more marked enhancement
